Test results reported in patent publication US9936701B2, “Herbicidal compounds” (Syngenta Participations AG, priority 2013, dated 2018).

What was measured:
[1] = system: a variety of test species; assay: Post-emergence herbicidal activity (glasshouse, sprayed after 8 days cultivation, evaluated after 13 days); type: in vivo; parameters: key: 5=total damage to plant; 0=no damage to plant; conditions: rate 1000 g/Ha, scale 0-5
How it was run: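 Seeds were sown in standard soil and cultivated for 8 days under controlled glasshouse conditions. Seedlings were then sprayed with an aqueous solution of the formulated compound containing 0.5% Tween 20. Injury was rated after a further 13 days, where 5 indicated total damage.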

[2] = system: a variety of test species; assay: Pre-emergence herbicidal activity (glasshouse, sprayed one day after sowing, evaluated after 13 days); type: in vivo; parameters: key: 5=total damage to plant; 0=no damage to plant; conditions: application pre-emergence, rate 1000 g/Ha, scale 0-5
How it was run: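 Visual 0–5 injury score (5 = total damage) taken 13 days after spraying. Treatment applied one day after sowing, before emergence; glasshouse at 24/16 °C day/night, 14 h photoperiod, 65% humidity.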

| SMILES | melting point [°C] | ABUTH (Abutilon theophrasti) damage score, application post-emergence [1] | ALOMY (Alopecurus myosuroides) damage score, application post-emergence [1] | AMARE (Amaranthus retroflexus) damage score, application post-emergence [1] | ECHCG (Echinochloa crus-galli) damage score, application post-emergence [1] | SETFA (Setaria faberi) damage score, application post-emergence [1] | ZEAMX (Zea mays) damage score, application post-emergence [1] | Pre-emergence herbicidal damage score, ABUTH [2] | Pre-emergence herbicidal damage score, ALOMY [2] | Pre-emergence herbicidal damage score, AMARE [2] | Pre-emergence herbicidal damage score, ECHCG [2] | Pre-emergence herbicidal damage score, SETFA [2] | Pre-emergence herbicidal damage score, ZEAMX [2] |
| --- | --- | --- | --- | --- | --- | --- | --- | --- | --- | --- | --- | --- | --- |
| CC1=C(Cl)C(=O)N(c2noc(C(C)(C)C)c2C#N)C1OC(=O)C(C)(C)C (stereo not shown) [A95] | 95 to 97 | 5 | 5 | 5 | 5 | 5 | 3 | 4 | 4 | 5 | 5 | 5 | 3 |
| CCCC1=C(Cl)C(=O)N(c2noc(C(C)(C)C)c2C#N)C1OC(=O)CC (stereo not shown) [A100] | 69 to 71 | 5 | 5 | 5 | 5 | 5 | 5 | 5 | 4 | 5 | 5 | 5 | 3 |
| CC1=C(Cl)C(=O)N(c2cc(C(C)(C)C)on2)C1 [A101] | 138 to 139 | 5 | 5 | 5 | 5 | 5 | 4 | 5 | 4 | 5 | 5 | 4 | 3 |
| CC1=C(Cl)C(=O)N(c2noc(C(C)C)c2C#N)C1 [A103] | 112 to 114 | 5 | 4 | 5 | 5 | 5 | 3 | 5 | 4 | 5 | 5 | 5 | 2 |
| CC1=C(Cl)C(=O)N(c2cc(C(C)(C)C#N)on2)C1 [A104] | 141 to 143 | 5 | 5 | 5 | 5 | 5 | 5 | 5 | 4 | 5 | 5 | 5 | 2 |
| COC1=C(Br)C(=O)N(c2cc(C(C)(C)C)on2)C1O (stereo not shown) [B2] | 140 to 160 | 5 | 4 | 5 | 5 | 4 | 5 | 5 | 4 | 5 | 5 | 4 | 1 |
| C=CCNC1=C(Cl)C(=O)N(c2cc(C(C)(C)C)on2)C1O (stereo not shown) [C7] | 163 to 164 | 5 | 4 | 5 | 5 | 5 | 3 | 5 | 3 | 5 | 5 | 3 | 2 |
| CC(C)(C)c1cc(N2C(=O)C(Cl)=C(NC3CC3)C2O)no1 (stereo not shown) [C8] | 179 to 180 | 5 | 4 | 5 | 5 | 5 | 4 | 5 | 3 | 5 | 5 | 3 | 2 |

Second part, led by results:

| melting point [°C] | SMILES | ABUTH (Abutilon theophrasti) damage score, application post-emergence [1] | ALOMY (Alopecurus myosuroides) damage score, application post-emergence [1] | AMARE (Amaranthus retroflexus) damage score, application post-emergence [1] | ECHCG (Echinochloa crus-galli) damage score, application post-emergence [1] | SETFA (Setaria faberi) damage score, application post-emergence [1] | ZEAMX (Zea mays) damage score, application post-emergence [1] | Pre-emergence herbicidal damage score, ABUTH [2] | Pre-emergence herbicidal damage score, ALOMY [2] | Pre-emergence herbicidal damage score, AMARE [2] | Pre-emergence herbicidal damage score, ECHCG [2] | Pre-emergence herbicidal damage score, SETFA [2] | Pre-emergence herbicidal damage score, ZEAMX [2] |
| --- | --- | --- | --- | --- | --- | --- | --- | --- | --- | --- | --- | --- | --- |
| 82 to 95 | COC1=C(C)C(O)N(c2cc(C(C)(C)C)on2)C1=O (stereo not shown) [D1, 1-(5-tert-butylisoxazol-3-yl)-2-hydroxy-4-methoxy-3-methyl-2H-pyrrol-5-one] | 5 | 4 | 5 | 5 | 5 | 4 | 5 | 4 | 5 | 4 | 5 | 2 |
| 98 to 100 | COC1=C(C)C(O)N(c2noc(C(C)(C)C)c2C#N)C1=O (stereo not shown) [D2, 5-tert-butyl-3-(2-hydroxy-4-methoxy-3-methyl-5-oxo-2H-pyrrol-1-yl)isoxazole-4-carbonitrile] | 5 | 5 | 5 | 5 | 5 | 4 | 5 | 3 | 5 | 4 | 5 | 3 |
| 99 to 101 | COC1=C(C)C(O)N(c2noc(C(C)C)c2C#N)C1=O (stereo not shown) [D3] | 5 | 5 | 5 | 5 | 5 | 4 | 4 | 3 | 5 | 5 | 5 | 2 |
| 123 to 125 | COC1=C(C)C(O)N(c2cc(C(C)(C)C#N)on2)C1=O (stereo not shown) [D4] | 5 | 5 | 5 | 5 | 5 | 5 | 5 | 4 | 5 | 5 | 5 | 3 |
| 79 to 81 | CCC(C)(C)c1onc(N2C(=O)C(OC)=C(C)C2O)c1C#N (stereo not shown) [D5] | 5 | 5 | 5 | 5 | 5 | 5 | 5 | 4 | 5 | 5 | 5 | 2 |
